These results are taken from patent US6630496B1, “Inhibitors of phospholipase enzymes” (Genetics Institute LLC, priority 1996, dated 2003).

Each structure is given as a SMILES string. Read-outs that look alike come from different tables or passages of the source.

For experiment [1], the system named is carrageenan-induced footpad edema. Nature of the experiment: Rat carrageenan-induced footpad edema test. The format is in vivo. As to conditions: iv, read-out: % inhibition of rat carrageenan-induced footpad edema. As to the method:
Compounds of the present invention were also tested for in vivo activity in a rat paw edema test according to the procedure described in Example 89.
Rat Carrageenan-Induced Footpad Edema Test
Each compound was suspended in 0.3 ml absolute ethanol, 0.1 ml Tween-80 and 2.0 ml Dulbecco's PBS (without calcium or magnesium). To this mixture, 0.1 ml 1N NaOH was added. After solution was complete, additional amounts of PBS were added to adjust the concentration to 1 mg/ml. All comounds remained in solution. Compounds were administered i.v. in a volumne of 5 ml/kg to male Sprague Dawley rats at the same time that edema was induced by injection of 0.05 ml of 1% Type IV carrageenan into the hind footpad. Footpad volume was measured before dosing with compound and 3 hours after dosing with carageenan.

Experiment [2] addresses T1, cPLA2 (Homo sapiens, UniProt P47712).
T1 sequence (P47712 1-749): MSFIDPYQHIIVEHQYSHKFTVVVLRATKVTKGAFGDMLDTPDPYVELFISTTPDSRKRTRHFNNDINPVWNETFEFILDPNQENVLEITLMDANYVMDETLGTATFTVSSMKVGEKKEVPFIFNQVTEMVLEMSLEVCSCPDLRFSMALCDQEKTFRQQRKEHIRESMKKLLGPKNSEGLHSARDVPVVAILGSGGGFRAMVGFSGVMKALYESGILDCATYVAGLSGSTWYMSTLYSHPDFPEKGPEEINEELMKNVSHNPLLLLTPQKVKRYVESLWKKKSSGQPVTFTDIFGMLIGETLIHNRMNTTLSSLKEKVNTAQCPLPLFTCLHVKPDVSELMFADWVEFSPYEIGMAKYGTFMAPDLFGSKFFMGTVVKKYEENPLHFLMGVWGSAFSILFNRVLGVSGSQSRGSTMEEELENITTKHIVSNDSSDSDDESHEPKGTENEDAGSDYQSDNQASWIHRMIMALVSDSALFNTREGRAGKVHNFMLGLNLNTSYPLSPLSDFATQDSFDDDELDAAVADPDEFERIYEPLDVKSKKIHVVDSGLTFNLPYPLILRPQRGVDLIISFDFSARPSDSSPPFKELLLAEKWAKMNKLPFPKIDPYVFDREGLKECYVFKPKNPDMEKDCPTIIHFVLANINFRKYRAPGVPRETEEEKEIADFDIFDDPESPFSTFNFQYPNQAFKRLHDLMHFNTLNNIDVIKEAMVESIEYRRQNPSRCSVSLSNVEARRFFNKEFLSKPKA
Nature of the experiment: Coumarine assay (7-hydroxycoumarinyl 6-heptenoate hydrolysis). It counts as biochemical. As to the method: 7-hydroxycoumarinyl 6-heptenoate was used as a monomeric substrate for cPLA2 as reported previously (Huang, Z. et al., 1994, Analytical Biochemistry 222, 110-115). Inhibitors were mixed with 200 μL assay buffer (80 mM Hepes, pH 7.5, 1 mM EDTA) containing 60 μM 7-hydroxycoumarinyl 6-heptenoate. The reaction was initiated by adding 4 μg cPLA2 in 50 μL assay buffer. Hydrolysis of the 7-hydroxycoumarinyl 6-heptenoate ester was monitored in a fluorometer by exciting at 360 nm and monitoring emission at 460 nm. Enzyme activity is proportional to the increasein emission at 460 nm per minute. In the presence of a cPLA2 inhibitor, the rate of increase is less.

Experiment [3] concerns the target T1, cPLA2. The experiment in a line: Soluble substrate assay (LysoPC). It counts as biochemical. As to the method: (b) Soluble Substrate Assay (LysoPC)
The lipid was resuspended by vortexing 80 mM Hepes pH 7.5, 1 mM EDTA (1.2×final concentration). A typical assay consisted of lipid suspension (85 μl) to which was added consecutively the inhibitor (5 μl in DMSO) and cPLA2, 200 ng in 80 mM Hepes pH 7.5, 2 mM DTT and […]. This assay was conducted by either the manual assay or automated assay protocol described below.

The mark [4] stands for this setting: 1 mg/ml, 5 ml/kg, male Sprague Dawley rats, footpad volume 3 hours after carrageenan.
The mark [5] stands for this setting: 60 μM 7-hydroxycoumarinyl 6-heptenoate, read-out: IC50 (μM) Coumarine.
[6] abbreviates: NA = inhibitory activity not detected, read-out: IC50 (μM) Lyso PC.

As to `O=C(O)c1cccc(NC(=O)c2cc3cc(OCc4ccccc4)ccc3n2Cc2ccc(COc3cc(C(F)(F)F)cc(C(F)(F)F)c3)cc2)c1` [Example 8], the inhibition in vivo at 1000 µg/mL, 5 mg/kg in experiment [1] (3 h) amounted to 29%. For the same molecule, the results for the IC50 on cPLA2 [2] and against cPLA2 [3] were 3.8 µM and 0.11 µM, respectively.

For `CCC(C)(C)c1ccc(OCC(=O)N2c3ccc(OCc4ccccc4)cc3CC2CSCC(=O)N(C)c2cc(C(=O)O)ccc2OC)c(C(C)(C)CC)c1` (centres unmarked) [Example 70, 3-N-Methyl-(2-(-5-benzyloxy-1-(2,4-bis(1,1-dimethy)propyl)phenoxyacetyl)indolinyl)methylthioacetamido-4-methoxybenzoic Acid], the inhibition in vivo at 1000 µg/mL, 5 mg/kg in experiment [1] (setting [4]) came to 21.7%. The IC50 (usually the concentration that gives 50% inhibition) on cPLA2 [2] (setting [5]) stood at 19 µM; on cPLA2 [3] (setting [6]), 0.84 µM.

Turning to `CCC(C)(C)c1ccc(OCC(=O)N2c3ccc(OCc4ccccc4)cc3CC2CSCC(=O)Nc2cccc(C(=O)O)c2)c(C(C)(C)CC)c1` (centres unmarked) [Example 17, 3-(2-(-5-Benzyloxy-1-(2,4-bis(1,1-dimethy)propyl)phenoxyacetyl)indolinyl)methylthioacetamidobenzoic Acid], the inhibition in vivo at 1000 µg/mL, 5 mg/kg in experiment [1] (setting [4]) stood at 29.3%. Moreover, the IC50 on cPLA2 [2] (setting [5]) is 6 µM; on cPLA2 [3] (setting [6]), 0.32 µM.

As for `O=C(O)c1cc(NC(=O)c2cc3cc(OCc4ccccc4)ccc3n2Cc2ccc(C(F)(F)F)cc2C(F)(F)F)ccc1Oc1ccc(Cl)nc1` [Example 10], the inhibition in vivo at 1000 µg/mL, 5 mg/kg in experiment [1] (3 h) came out at 8.9%. Besides, the half-maximal inhibitory concentration (IC50) was 28 µM at cPLA2 [2] and 0.33 µM at cPLA2 [3].

Turning to `O=C(O)c1ccccc1SCC1Cc2cc(OCc3ccccc3)ccc2N1Cc1ccc(COc2cc(C(F)(F)F)cc(C(F)(F)F)c2)cc1` (centres unmarked) [Example 77], the inhibition in vivo at 1000 µg/mL, 5 mg/kg in experiment [1] (setting [4]) came to 13%. The IC50 at cPLA2 [2] (setting [5]) worked out at 2.5 µM.

On to `CCC(C)(C)c1ccc(OCC(=O)N2c3ccc(OCc4ccccc4)cc3CC2CSc2ccccc2C(=O)O)c(C(C)(C)CC)c1` (centres unmarked) [Example 67, 2-(2-(-5-Benzyloxy-1-(2,4-bis(1,1-dimethy)propyl)phenoxyacetyl)indolinyl)methylthiobenzoic Acid], for which, in experiment [1] (setting [4]), the inhibition in vivo at 1000 µg/mL, 5 mg/kg came to 17.5%. The results for the IC50 on cPLA2 [2] (setting [5]) and on cPLA2 [3] (setting [6]) were 10 µM and 0.22 µM, respectively.

As to `O=C(CSCC1Cc2cc(OCc3ccc4ccccc4n3)ccc2N1C(=O)COc1cc(C(F)(F)F)cc(C(F)(F)F)c1)Nc1cc(C(F)(F)F)cc(C(F)(F)F)c1` (centres unmarked) [Example 50], the inhibition in vivo at 1000 µg/mL, 5 mg/kg in experiment [1] (setting [4]) was 11.7%. The IC50 was above 50 µM at cPLA2 [2] (setting [5]) and 4.4 µM on cPLA2 [3] (setting [6]).
